Values quoted from earlier work as cited in US9060929B2, “Alprostadil for treatment of premature ejaculation” (Nexmed Holdings, Inc., priority 2003, dated 2015).
Where two headings read alike, the source gives them in different places.

Experiments:
[1] = tested on: men with premature ejaculation and/or erectile dysfunction
patients with PE = settings: 6 months

**Q.** With `CNCCC(Oc1ccc(C(F)(F)F)cc1)c1ccccc1` (stereo not shown) [fluoxetine] as the compound, how does the latency to ejaculation ([1]; PE and PE+ED group taken together, p=0.007) read?
**A.** increased significantly

**Q.** And the latency to ejaculation ([1]; PE+ED group, p=0.03)?
**A.** increased significantly

**Q.** Which results are given for `CN[C@H]1CC[C@@H](c2ccc(Cl)c(Cl)c2)c2ccccc21` [sertraline]?
**A.** ejaculation latency after treatment (patients with PE; PE group, 50 mg sertraline four hours before sex): 247.2 s; ejaculation latency after treatment (patients with PE; PE+ED group (sildenafil-treated), 50 mg sertraline): 111.6 s
